Data published in patent US20210038587A1, “METHODS AND COMPOSITIONS FOR TREATING NON-ERK MAPK PATHWAY INHIBITOR-RESISTANT CANCERS” (BIOMED VALLEY DISCOVERIES, INC., priority 2013, published 2021).
Marks after values point to notes of the source that are not given here.

Columns and labels:
[1] = Phase I dose-escalation study: safety, DLT, MTD, RP2D; conditions: in vivo
Source text: Patients aged ≥18 years were eligible for participation if they had noncurable, histologically confirmed metastatic or advanced stage malignant tumors; an ECOG performance status of 0 or 1; adequate renal, hepatic, bone marrow, and cardiac function; and a life expectancy ≥3 months. Patients may have received up to 2 prior lines of chemotherapy for their metastatic disease. Exclusion criteria were known uncontrolled brain metastases; gastrointestinal conditions which could impair absorption of study medication; history or current evidence/risk of retinal vein occlusion or central serous retinopathy; and concurrent therapy with drugs known to be strong inhibitors of CYP1A2, CYP2D6, and CYP3A4 or strong inducers of CYP3A4. All participants provided informed consent prior to initiation of any study procedures.
The present invention presents data from an open-label, multicenter phase I study to assess the safety, pharmacokinetics, and pharmacodynamics of escalating doses of BVD-523 in patients with advanced malignancies.
Patients received BID oral doses until disease progression, unacceptable toxicity, or a clinical observation satisfying another withdrawal criterion. Dose escalations occurred in up to 100% increments in single-patient cohorts until 1 patient experienced a ≥Grade 2 toxicity (excluding alopecia or diarrhea). Cohorts were then expanded to at least 3 patients each and subsequent dose-escalation increments were reduced from up to 100% to a maximum of 50%. When at least 1 patient in a 3-patient cohort experienced a DLT, up to 3 additional patients were treated at this dose level. When more than 1 DLT occurred in ≤6 patients, this dose level was defined as the nontolerated dose and dose escalation was stopped. Intrapatient dose escalation was allowed, provided the patients receiving the highest current dose had been observed for at least 3 weeks and dose-limiting side effects were reported in fewer than 2 of 6 patients assigned to a given dose. Patients experiencing DLTs or unacceptable toxicity had their treatment interrupted until the toxicity returned to ≤Grade 1.
The RP2D could be as high as the MTD and was determined in discussion with the clinical investigators, the medical monitor, and the sponsor. Observations related to pharmacokinetics, pharmacodynamics, and any cumulative toxicity observed after multiple cycles were included in the rationale supporting the RP2D.
The severity of AEs were graded according to the National Cancer Institute Common Terminology Criteria for Adverse Events, Grading Scale, version 4.
Safety evaluations were conducted at baseline, on Days 8, 15, 22, 29, 36, and 43, and, in patients who continued treatment, every 3 weeks or if clinically indicated thereafter. Each evaluation included a physical examination and clinical laboratory studies. Electrocardiograms were repeated if clinically significant and at the discretion of the investigator. The investigators made judgments regarding whether or not AEs were related to study drug and followed up until resolution or stabilization, or the AE was judged to be no longer clinically significant.

[2] = test system: A375 xenografts; experiment: A375 xenografts, BVD-523 in combination with dabrafenib; format: in vivo, mice; conditions: 100 mg/kg BID
Source text: (§1) For measurement of antitumor activity in A375 xenografts, xenografts were initiated with A375 cells maintained by serial subcutaneous transplantation in female athymic nude mice. Each test mouse received an A375 tumor fragment (1 mm^3) implanted subcutaneously in the right flank. Once tumors reached target size (80-120 mm^3), animals were randomized into treatment and control groups, and drug treatment was initiated.
Combination dosing was stopped on Day 20 to monitor for tumor regrowth. Animals were monitored individually and euthanized when each tumor reached an endpoint volume of 2000 mm^3, or the final day (Day 45), whichever came first, and median time to endpoint (TTE) calculated. The combination was also evaluated in an upstaged A375 model where larger tumors in the range 228-1008 mm^3 were evaluated. Here, mice were randomized into 1 group (Group 1) of 14 and 4 groups (Groups 2-5) of 20. […] Tumors were measured twice weekly. Combination dosing was stopped on Day 42 to monitor for tumor regrowth through study end (Day 60). Treatment outcome was determined from % TGD, defined as the percent increase in median TTE for treated versus control mice, with differences between groups analyzed via log rank survival analysis. […] Mice were also monitored for CR and PR responses. Animals with a CR at the end of the study were additionally classified as TFS.

[3] = target: P38δ (Homo sapiens, UniProt O15264); experiment: Kinase counter-screen, Ki; format: biochemical; conditions: apparent Ki
Source text: (§2) The ATP concentrations were approximately equal to the Km in all assays.

[4] = test system: A375 xenografts; experiment: Antitumor activity in A375 xenografts, monotherapy; format: in vivo, mice; conditions: 14 days
Method: as §1
Oral temozolomide was administered as a positive reference compound at 75 or 175 mg/kg once daily (QD) for a total of five treatments (QD×5).

[5] = target: JNK3 (Homo sapiens, UniProt P53779); experiment: Kinase counter-screen, Ki; format: biochemical
Source text: as §2

[6] = target: P38γ (Homo sapiens, UniProt P53778); experiment: Kinase counter-screen, Ki; format: biochemical; conditions: apparent Ki
Chain of P38γ (P53778 whole entry): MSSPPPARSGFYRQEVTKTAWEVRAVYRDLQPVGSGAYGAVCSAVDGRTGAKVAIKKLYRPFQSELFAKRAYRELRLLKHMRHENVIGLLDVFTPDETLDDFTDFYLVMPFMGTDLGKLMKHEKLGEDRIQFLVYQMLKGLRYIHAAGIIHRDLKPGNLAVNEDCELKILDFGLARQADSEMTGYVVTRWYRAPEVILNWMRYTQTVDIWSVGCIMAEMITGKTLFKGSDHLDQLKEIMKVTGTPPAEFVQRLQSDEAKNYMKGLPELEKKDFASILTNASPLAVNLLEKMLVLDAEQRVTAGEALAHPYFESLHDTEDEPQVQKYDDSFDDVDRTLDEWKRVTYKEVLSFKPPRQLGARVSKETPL
Source text: as §2

Chain of JNK3 (P53779 whole entry, species assumed): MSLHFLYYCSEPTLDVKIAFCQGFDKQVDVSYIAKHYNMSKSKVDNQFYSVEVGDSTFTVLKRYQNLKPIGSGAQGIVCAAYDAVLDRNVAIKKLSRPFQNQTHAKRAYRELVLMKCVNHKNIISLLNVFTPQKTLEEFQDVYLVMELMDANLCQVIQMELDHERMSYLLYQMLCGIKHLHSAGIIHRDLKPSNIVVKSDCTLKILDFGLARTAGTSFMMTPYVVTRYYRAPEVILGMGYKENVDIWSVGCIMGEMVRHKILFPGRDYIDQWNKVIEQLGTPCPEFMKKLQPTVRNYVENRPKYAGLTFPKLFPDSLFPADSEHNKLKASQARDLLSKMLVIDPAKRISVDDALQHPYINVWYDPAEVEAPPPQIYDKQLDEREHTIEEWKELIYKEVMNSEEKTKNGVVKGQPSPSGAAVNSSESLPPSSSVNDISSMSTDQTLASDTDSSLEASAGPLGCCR
Chain of P38δ (O15264 whole entry): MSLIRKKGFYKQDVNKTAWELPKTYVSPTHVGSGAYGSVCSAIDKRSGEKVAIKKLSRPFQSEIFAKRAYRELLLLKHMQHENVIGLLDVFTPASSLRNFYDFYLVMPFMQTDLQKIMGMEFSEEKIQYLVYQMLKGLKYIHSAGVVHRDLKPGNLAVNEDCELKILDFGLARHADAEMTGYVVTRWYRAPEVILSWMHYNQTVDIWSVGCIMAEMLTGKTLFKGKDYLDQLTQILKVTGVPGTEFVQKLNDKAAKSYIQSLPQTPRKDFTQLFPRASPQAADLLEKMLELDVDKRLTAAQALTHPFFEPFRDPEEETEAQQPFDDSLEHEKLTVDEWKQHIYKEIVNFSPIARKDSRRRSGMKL

In the case of `CC(C)Nc1cc(-c2c[nH]c(C(=O)N[C@H](CO)c3cccc(Cl)c3)c2)c(Cl)cn1` [BVD-523], the “Anemia, Any grade” value ([1]; human) is reported as 5 (19) n (%), the “Anemia, Grade 1 or 2” value ([1]; human) is reported as 3 (11) n (%) and the “Anemia, Grade 3” value ([1]; human) is reported as 2^ (7) n (%). The “Anorexia, Any grade” value ([1]; human) was 6 (22) n (%), the “Anorexia, Grade 1 or 2” value ([1]; human) was 6 (22) n (%) and the “Anorexia, Grade 3” value ([1]; human) was 0 n (%). For the same molecule, the “Blurry/dimmed vision, Any grade” value ([1]; human) was 3 (11) n (%), the “Blurry/dimmed vision, Grade 1 or 2” value ([1]; human) was 3 (11) n (%) and the “Blurry/dimmed vision, Grade 3” value ([1]; human) was 0 n (%). The “Constipation, Any grade” value ([1]; human) was 3 (11) n (%), the “Constipation, Grade 1 or 2” value ([1]; human) was 3 (11) n (%) and the “Constipation, Grade 3” value ([1]; human) was 0 n (%). For the same molecule, the “Dehydration, Any grade” value ([1]; human) was 5 (19) n (%), the “Dehydration, Grade 1 or 2” value ([1]; human) was 3 (11) n (%) and the “Dehydration, Grade 3” value ([1]; human) was 2^ (7) n (%). The “Diarrhea, Any grade” value ([1]; human) was 16 (59) n (%), the “Diarrhea, Grade 1 or 2” value ([1]; human) was 12 (44) n (%) and the “Diarrhea, Grade 3” value ([1]; human) was 4^ (15) n (%). For the same molecule, the “Fatigue, Any grade” value ([1]; human) was 17 (63) n (%), the “Fatigue, Grade 1 or 2” value ([1]; human) was 16 (59) n (%) and the “Fatigue, Grade 3” value ([1]; human) was 1^ (4) n (%). For the same molecule, the “Fever, Any grade” value ([1]; human) was 3 (11) n (%), the “Fever, Grade 1 or 2” value ([1]; human) was 3 (11) n (%) and the “Fever, Grade 3” value ([1]; human) was 0 n (%). The “Grade 3 treatment-related diarrhea” value ([1]; human) was 15%, the “Grade 3 treatment-related increased liver function tests” value ([1]; human) was 11% and the “Increased LFTs (ALT and AST), Any grade” value ([1]; human) was 4 (14) n (%). The “Increased LFTs (ALT and AST), Grade 1 or 2” value ([1]; human) was 1 (4) n (%), the “Increased LFTs (ALT and AST), Grade 3” value ([1]; human) was 3^ (11) n (%) and the “Increased creatinine, Any grade” value ([1]; human) was 5 (19) n (%). The “Increased creatinine, Grade 1 or 2” value ([1]; human) was 4 (15) n (%), the “Increased creatinine, Grade 3” value ([1]; human) was 1^ (4) n (%) and the MTD ([1]; human) was 600 mg BID. For the same molecule, the “Nausea, Any grade” value ([1]; human) was 14 (52) n (%), the “Nausea, Grade 1 or 2” value ([1]; human) was 14 (52) n (%) and the “Nausea, Grade 3” value ([1]; human) was 0 n (%). For the same molecule, the “Peripheral edema, Any grade” value ([1]; human) was 4 (15) n (%), the “Peripheral edema, Grade 1 or 2” value ([1]; human) was 4 (15) n (%) and the “Peripheral edema, Grade 3” value ([1]; human) was 0 n (%). The “Pruritus, Any grade” value ([1]; human) was 6 (22) n (%), the “Pruritus, Grade 1 or 2” value ([1]; human) was 6 (22) n (%) and the “Pruritus, Grade 3” value ([1]; human) was 0 n (%). For the same molecule, the RP2D ([1]; human) was 600 mg BID, the “Rash, Any grade” value ([1]; human) was 20 (74) n (%) and the “Rash, Grade 1 or 2” value ([1]; human) was 18 (67) n (%). For the same molecule, the “Rash, Grade 3” value ([1]; human) was 2^b (7) n (%), the “Vomiting, Any grade” value ([1]; human) was 8 (30) n (%) and the “Vomiting, Grade 1 or 2” value ([1]; human) was 7 (26) n (%). The “Vomiting, Grade 3” value ([1]; human) was 1^ (4) n (%), the “dose reductions resulting from AEs” value ([1]; human) was 3 patients and the “patients with Grade 4 or 5 AEs possibly or definitely related” value ([1]; human) was “^aNo patients experienced Grade 4 or 5 AEs that were possibly or definitely related to BVD-523 treatment”. For the same molecule, the “patients with treatment-related AEs of any grade” value ([1]; human) was 26 of 27, the “patients with treatment-related Grade 3 events” value ([1]; human) was 13 of 27 and the “related central serous retinopathy events” value ([1]; human) was “^cOne Grade 1 event of related central serous retinopathy”. The “total serious AEs (SAEs)” value ([1]; human) was 28, the treatment-related diarrhea ([1]; human) was 52% and the treatment-related fatigue ([1]; human) was 59%. The treatment-related nausea ([1]; human) was 52%, the “treatment-related rash (predominately acneiform)” value ([1]; human) was 70% and the “patients with serious AEs (SAEs)” value [1] was “Fourteen”. The durable complete responses [2] was 2, the Ki [3] was 240 nM and the “tumor growth inhibition (TGI)” value ([4]; 50 mg/kg BID p.o.) was 71%. The “tumor growth inhibition (TGI)” value ([4]; 100 mg/kg BID p.o.) was 99%, the Ki [5] was 1300 nM and the Ki [6] was 450 nM.
